Results published in ChEMBL document CHEMBL1158142, “Bionectins A-C, epidithiodioxopiperazines with anti-MRSA activity, from Bionectra byssicola F120” (2006).
Values after ≈ are worked out from the molar mass of the structure shown. Active and inactive are the calls of the source. The calls are words filed in the database; no cut-off is given here.

Columns and labels:
[1] = test system: Staphylococcus aureus; assay: Antibacterial activity against methicillin-resistant Staphylococcus aureus CCARM3506 after 24 hrs; format: functional
[2] = test system: Staphylococcus aureus; assay: Antibacterial activity against Staphylococcus aureus 503 after 24 hrs; format: functional
[3] = test system: Staphylococcus aureus; assay: Antibacterial activity against methicillin-sensitive Staphylococcus aureus CCARM3519 after 24 hrs; format: functional
[4] = test system: Staphylococcus aureus; assay: Antibacterial activity against methicillin-resistant Staphylococcus aureus CCARM3167 after 24 hrs; format: functional
[5] = test system: Staphylococcus aureus; assay: Antibacterial activity against methicillin-sensitive Staphylococcus aureus CCARM3505 after 24 hrs; format: functional
[6] = test system: Staphylococcus aureus; assay: Antibacterial activity against Staphylococcus aureus RN4220 after 24 hrs; format: functional; conditions: RN4220, 24 h
[7] = test system: Staphylococcus aureus; assay: Antibacterial activity against methicillin-resistant Staphylococcus aureus CCARM3167 up to 100 ug/mL after 24 hrs; format: functional, organism-based
[8] = test system: Staphylococcus aureus; assay: Antibacterial activity against Staphylococcus aureus 503 up to 100 ug/mL after 24 hrs; format: functional, organism-based
[9] = test system: Staphylococcus aureus; assay: Antibacterial activity against methicillin-resistant Staphylococcus aureus CCARM3506 up to 100 ug/mL after 24 hrs; format: functional, organism-based
[10] = test system: Staphylococcus aureus; assay: Antibacterial activity against methicillin-sensitive Staphylococcus aureus CCARM3519 up to 100 ug/mL after 24 hrs; format: functional, organism-based
[11] = test system: Staphylococcus aureus; assay: Antibacterial activity against Staphylococcus aureus RN4220 up to 100 ug/mL after 24 hrs; format: functional, organism-based
[12] = test system: Staphylococcus aureus; assay: Antibacterial activity against methicillin-sensitive Staphylococcus aureus CCARM3505 up to 100 ug/mL after 24 hrs; format: functional, organism-based

Compound	MIC [1] [µg/mL]	MIC [2] [µg/mL]	MIC [3] [µg/mL]	MIC [4] [µg/mL]	MIC [5] [µg/mL]	MIC [6] [µg/mL]	Activity [7]	Activity [8]	Activity [9]	Activity [10]	Activity [11]	Activity [12]
CC(O)[C@@]12SS[C@]3(C(=O)N1C)[C@@H](O)C1([C@@]45c6ccccc6N[C@@H]4N4C(=O)[C@]6(C(C)O)SS[C@]4(C(=O)N6C)[C@H]5O)c4ccccc4N[C@@H]1N3C2=O (stereo not given in full) [VERTICILLIN D]	3 (≈ 3.96 µM)	3 (≈ 3.96 µM)	10 (≈ 13.2 µM)	3 (≈ 3.96 µM)	10 (≈ 13.2 µM)	3 (≈ 3.96 µM)						
CN1C(=O)[C@]23SS[C@H]1C(=O)N2[C@H]1Nc2ccccc2[C@@]1(c1c[nH]c2ccccc12)[C@@H]3O [BIONECTIN A]	30 (≈ 66.6 µM)	10 (≈ 22.2 µM)	10 (≈ 22.2 µM)	30 (≈ 66.6 µM)	10 (≈ 22.2 µM)	10 (≈ 22.2 µM)						
CC(O)[C@@]12SS[C@]3(C(=O)N1C)[C@@H](O)[C@]1(c4c[nH]c5ccccc45)c4ccccc4N[C@@H]1N3C2=O (stereo not given in full) [BIONECTIN B]	10 (≈ 20.2 µM)	30 (≈ 60.7 µM)	30 (≈ 60.7 µM)	10 (≈ 20.2 µM)	30 (≈ 60.7 µM)	30 (≈ 60.7 µM)						
CN[C@H](CC(C)C)C(=O)N[C@H]1C(=O)N[C@@H](CC(N)=O)C(=O)N[C@H]2C(=O)N[C@H]3C(=O)N[C@H](C(=O)N[C@H](C(=O)O)c4cc(O)cc(O)c4-c4cc3ccc4O)[C@H](O)c3ccc(c(Cl)c3)Oc3cc2cc(c3O[C@@H]2O[C@H](CO)[C@@H](O)[C@H](O)[C@H]2O[C@H]2C[C@](C)(N)[C@H](O)[C@H](C)O2)Oc2ccc(cc2Cl)[C@H]1O [VANCOMYCIN]		0.25 (≈ 0.173 µM)										
CS[C@H]1C(=O)N2[C@H]3Nc4ccccc4[C@@]3(c3c[nH]c4ccccc34)[C@H](O)[C@]2(SC)C(=O)N1C							inactive	inactive	inactive	inactive	inactive	inactive
